# Data from PubChem BioAssay AID1963974 (Molecular Pharmacology Branch, DTP, NCI, 2024).
# System: 648629-189-R-J1-PDC spheroids with HUVEC/MSC, viability
# Test: Anticancer human tumor 648629-189-R-J1-PDC patient-derived bladder carcinoma cell line growth inhibition [PI3K]
# Conditions: for IC50: curve of first compound; for viability, T/C: stronger effect = lower value
# From the text: Combinatorial screen of targeted agents with the PI3K inhibitors inavolisib, alpelisib, duvelisib, and copanlisib in multi-cell type tumor spheroids
# A high-throughput screen of multi-cell type tumor spheroids was designed to identify active combinations of targeted small molecules and PI3K pathway inhibitors. Complex spheroids include a stromal component modeled by human endothelial cells (HUVEC) and fibroblasts modeled by human mesenchymal stem cells (MSCs). The concentration ranges selected for each drug and investigational agent were based upon clinically achievable concentrations if the clinical Cmax of the agent was known.
# Compounds. The drugs and investigational agents: inavolisib (NSC800729), alpelisib (NSC765974), duvelisib (NSC772469), copanlisib (NSC816437), ipatasertib (NSC767898), afuresertib (NSC778305), talazoparib (NSC767125), sapanisertib (NSC764658), selumetinib (NSC741078), tovorafenib (DAY101, NSC766906), vemurafenib (NSC761431), ravoxertinib (NSC781343), sotorasib (NSC818433), MRTX1133 (NSC 836407), abemaciclib (NSC 768073), palbociclib (NSC758247), venetoclax (NSC 766270), SY5609 (NSC837396), enzalutamide (NSC755605), and darolutamide (NSC825331), were obtained from the National Cancer Institute (NCI) Developmental Therapeutics Program Chemical Repository. The FDA-approved anticancer drug set is available from the NCI Developmental Therapeutics Program. […] The stock solutions were prepared in dimethyl sulfoxide (DMSO, Sigma-Aldrich, St. Louis, MO, cat. D2650) at 800-fold the tested concentration and stored at -70 degrees C prior to their use. All drugs and investigational agents were tested over a range starting from a high concentration at or near the clinical Cmax and decreasing in half-log increments. If the clinical Cmax for an agent had not been determined, the highest concentration tested was 10 microM.
# Cell Culture. All cells were maintained in an incubator at 37 degrees C and 5% CO2 with 95% humidity. The PDC lines were cultured according to standard operating procedures established by the NCI PDMR (https://pdmr.cancer.gov/sops/default.htm). All PDCs were thawed and cultured in Matrigel-coated flasks prepared with a working solution of 1X Ham's F-12 nutrient mix, without supplementation (Invitrogen, Waltham, MA, cat. 11765054), 100 U/mL penicillin-streptomycin (Invitrogen, cat. 15140122), and 2.5% Matrigel (Corning Inc., Corning, NY, cat. 354248) for the first three passages. The 354836-022-R-J1-PDC, 475296-252-R-J1-PDC, and 997726-040-R-J2-PDC lines were cultured in 6A media, which includes advanced DMEM/F-12 (Thermo Fisher Scientific, cat. 12634028), 10 mM HEPES (Thermo Fisher Scientific, cat. 15630080), 1X GlutaMAX supplement (Thermo Fisher Scientific, cat. 35050061), 0.1 mg/mL primocin (InvivoGen, San Diego, CA, cat. ant-pm-2), 10% defined fetal bovine serum, heat inactivated (HyClone Laboratories Inc., Logan, UT, cat. SH30070.03HI), 50% L-WRN conditioned media (ATCC, cat. CRL-3276), 1.25 mM N-Acetyl-L-cysteine (Sigma-Aldrich, cat. A9165), 10 mM nicotinamide (Sigma-Aldrich, cat. N0636), 1X B-27 supplement (Thermo Fisher Scientific, cat. 17504044), 1X N-2 supplement (Thermo Fisher Scientific, cat. 17502048), and 10 microM Y-27632 dihydrochloride (Tocris Bioscience, Bristol, United Kingdom, cat. 1254). The 624824-186-R-J2-PDC line was cultured in 6C/Colon 1B media, which includes all 6A media components plus 50 ng/mL human EGF recombinant protein (Thermo Fisher Scientific, cat. PHG0311). […]
# [1] = second compound 0.00316 µM, first compound 0.0316 µM
# [2] = second compound 0.00316 µM, first compound 0.1 µM
# [3] = second compound 0.00316 µM, first compound 0.316 µM
# [4] = second compound 0.00316 µM, first compound 1 µM
# [5] = second compound 0.00316 µM, first compound 3.16 µM
# [6] = second compound 0.00316 µM, first compound 10 µM
# [7] = second compound 0.01 µM, first compound 0.0316 µM
# [8] = second compound 0.01 µM, first compound 0.1 µM
# [9] = second compound 0.01 µM, first compound 0.316 µM
# [10] = second compound 0.01 µM, first compound 1 µM
# [11] = second compound 0.01 µM, first compound 3.16 µM
# [12] = second compound 0.01 µM, first compound 10 µM
# [13] = second compound 0.0316 µM, first compound 0.0316 µM
# [14] = second compound 0.0316 µM, first compound 0.1 µM
# [15] = second compound 0.0316 µM, first compound 0.316 µM
# [16] = second compound 0.0316 µM, first compound 1 µM
# [17] = second compound 0.0316 µM, first compound 3.16 µM
# [18] = second compound 0.0316 µM, first compound 10 µM
# [19] = second compound 0.1 µM, first compound 0.0316 µM
# [20] = second compound 0.1 µM, first compound 0.1 µM
# [21] = second compound 0.1 µM, first compound 0.316 µM
# [22] = second compound 0.1 µM, first compound 1 µM
# [23] = second compound 0.1 µM, first compound 3.16 µM
# [24] = second compound 0.1 µM, first compound 10 µM
# [25] = second compound 0.316 µM, first compound 0.0316 µM
# [26] = second compound 0.316 µM, first compound 0.1 µM
# [27] = second compound 0.316 µM, first compound 0.316 µM
# [28] = second compound 0.316 µM, first compound 1 µM
# [29] = second compound 0.316 µM, first compound 3.16 µM
# [30] = second compound 0.316 µM, first compound 10 µM
# [31] = second compound 1 µM, first compound 0.0316 µM
# [32] = second compound 1 µM, first compound 0.1 µM
# [33] = second compound 1 µM, first compound 0.316 µM
# [34] = second compound 1 µM, first compound 1 µM
# [35] = second compound 1 µM, first compound 3.16 µM
# [36] = second compound 1 µM, first compound 10 µM
# 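Also: spheroids exposed to agents for seven days before reading.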
# 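For viability, T/C in this document: percent of vehicle control luminescence where 100% = DMSO treated spheroids.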
smiles,measurement,setting,value
CC(C)NCC(C(=O)N1CCN(c2ncnc3c2C(C)CC3O)CC1)c1ccc(Cl)cc1 (stereo unspecified) + CC(Nc1ccc2c(c1)OCCn1cc(N3C(=O)OCC3C(F)F)nc1-2)C(N)=O,IC50,second compound 0.00316 µM,1280 nM
same,IC50,second compound 0.01 µM,1010 nM
same,IC50,second compound 0.0316 µM,870 nM
same,IC50,second compound 0.1 µM,1150 nM
same,IC50,second compound 0.316 µM,645 nM
same,IC50,second compound 1 µM,437 nM
same,"viability, T/C",[1],110%
same,"viability, T/C",[2],97.4%
same,"viability, T/C",[3],91.8%
same,"viability, T/C",[4],54.9%
same,"viability, T/C",[5],27.3%
same,"viability, T/C",[6],13.5%
same,"viability, T/C",[7],95.5%
same,"viability, T/C",[8],105%
same,"viability, T/C",[9],81%
same,"viability, T/C",[10],50.2%
same,"viability, T/C",[11],26.8%
same,"viability, T/C",[12],16.2%
same,"viability, T/C",[13],90.1%
same,"viability, T/C",[14],99.3%
same,"viability, T/C",[15],77.7%
same,"viability, T/C",[16],44.5%
same,"viability, T/C",[17],27.1%
same,"viability, T/C",[18],14%
same,"viability, T/C",[19],82.7%
same,"viability, T/C",[20],80.7%
same,"viability, T/C",[21],78.2%
same,"viability, T/C",[22],52.4%
same,"viability, T/C",[23],25.3%
same,"viability, T/C",[24],13.6%
same,"viability, T/C",[25],83.1%
same,"viability, T/C",[26],75.6%
same,"viability, T/C",[27],63.8%
same,"viability, T/C",[28],41.3%
same,"viability, T/C",[29],24.6%
same,"viability, T/C",[30],14.2%
same,"viability, T/C",[31],65.2%
same,"viability, T/C",[32],67.8%
same,"viability, T/C",[33],56.6%
same,"viability, T/C",[34],32.2%
same,"viability, T/C",[35],19%
same,"viability, T/C",[36],12.6%
CCN1CCN(Cc2ccc(Nc3ncc(F)c(-c4cc(F)c5nc(C)n(C(C)C)c5c4)n3)nc2)CC1 + CC(Nc1ccc2c(c1)OCCn1cc(N3C(=O)OCC3C(F)F)nc1-2)C(N)=O,IC50,second compound 0.00316 µM,> 1000 nM
same,IC50,second compound 0.01 µM,> 1000 nM
same,IC50,second compound 0.0316 µM,> 1000 nM
same,IC50,second compound 0.1 µM,> 1000 nM
same,IC50,second compound 0.316 µM,> 1000 nM
same,IC50,second compound 1 µM,> 1000 nM
same,"viability, T/C","second compound 0.00316 µM, first compound 0.00316 µM",105%
same,"viability, T/C","second compound 0.00316 µM, first compound 0.01 µM",98.8%
same,"viability, T/C",[1],105%
same,"viability, T/C",[2],113%
same,"viability, T/C",[3],118%
same,"viability, T/C",[4],119%
same,"viability, T/C","second compound 0.01 µM, first compound 0.00316 µM",95.5%
same,"viability, T/C","second compound 0.01 µM, first compound 0.01 µM",102%
same,"viability, T/C",[7],110%
same,"viability, T/C",[8],110%
same,"viability, T/C",[9],113%
same,"viability, T/C",[10],107%
same,"viability, T/C","second compound 0.0316 µM, first compound 0.00316 µM",105%
same,"viability, T/C","second compound 0.0316 µM, first compound 0.01 µM",99.2%
same,"viability, T/C",[13],112%
same,"viability, T/C",[14],95.8%
same,"viability, T/C",[15],121%
same,"viability, T/C",[16],124%
same,"viability, T/C","second compound 0.1 µM, first compound 0.00316 µM",96.4%
same,"viability, T/C","second compound 0.1 µM, first compound 0.01 µM",104%
same,"viability, T/C",[19],102%
same,"viability, T/C",[20],105%
same,"viability, T/C",[21],109%
same,"viability, T/C",[22],103%
same,"viability, T/C","second compound 0.316 µM, first compound 0.00316 µM",85.5%
same,"viability, T/C","second compound 0.316 µM, first compound 0.01 µM",82.6%
same,"viability, T/C",[25],99.9%
same,"viability, T/C",[26],98.6%
same,"viability, T/C",[27],90.7%
same,"viability, T/C",[28],96.9%
same,"viability, T/C","second compound 1 µM, first compound 0.00316 µM",70.8%
same,"viability, T/C","second compound 1 µM, first compound 0.01 µM",72.4%
same,"viability, T/C",[31],64.3%
same,"viability, T/C",[32],73.1%
same,"viability, T/C",[33],87.8%
same,"viability, T/C",[34],77.8%
Cn1ncc(Cl)c1-c1cc(C(=O)NC(CN)Cc2cccc(F)c2)sc1Cl (stereo unspecified) + CC(Nc1ccc2c(c1)OCCn1cc(N3C(=O)OCC3C(F)F)nc1-2)C(N)=O,IC50,second compound 0.00316 µM,> 10000 nM
same,IC50,second compound 0.01 µM,766 nM
same,IC50,second compound 0.0316 µM,> 10000 nM
same,IC50,second compound 0.1 µM,270 nM
same,IC50,second compound 0.316 µM,209 nM
same,IC50,second compound 1 µM,162 nM
same,"viability, T/C",[1],97%
same,"viability, T/C",[2],87.4%
same,"viability, T/C",[3],50.5%
same,"viability, T/C",[4],30.1%
same,"viability, T/C",[5],20.2%
same,"viability, T/C",[6],102%
same,"viability, T/C",[7],88.8%
same,"viability, T/C",[8],91%
same,"viability, T/C",[9],56.1%
same,"viability, T/C",[10],32.6%
same,"viability, T/C",[11],17.5%
same,"viability, T/C",[12],94.3%
same,"viability, T/C",[13],98%
same,"viability, T/C",[14],80.4%
same,"viability, T/C",[15],55.1%
same,"viability, T/C",[16],30.8%
same,"viability, T/C",[17],19.4%
same,"viability, T/C",[18],99.7%
same,"viability, T/C",[19],85.3%
same,"viability, T/C",[20],72.9%
same,"viability, T/C",[21],47.4%
same,"viability, T/C",[22],27.5%
same,"viability, T/C",[23],14.8%
same,"viability, T/C",[24],89%
same,"viability, T/C",[25],79.9%
same,"viability, T/C",[26],61.5%
same,"viability, T/C",[27],47.5%
same,"viability, T/C",[28],24%
same,"viability, T/C",[29],15.7%
same,"viability, T/C",[30],72.2%
same,"viability, T/C",[31],56.2%
same,"viability, T/C",[32],62.1%
same,"viability, T/C",[33],37.3%
same,"viability, T/C",[34],22.6%
same,"viability, T/C",[35],13.2%
same,"viability, T/C",[36],67%
